The results in this text go back to publication PMC6269946, “Anti-Plasmodial Activity of Some Zulu Medicinal Plants and of Some Triterpenes Isolated from Them” (Molecules, 2013).

SMILES strings stand for the structures. Values after ≈ are worked out from the molar mass of the structure shown. Like-named read-outs stand apart in the source and are kept apart here.

Assay [1] has as its system chloroquine sensitive (CQS) strain of Plasmodium falciparum (D10). The experiment in a line: In vitro antiplasmodial activity, parasite lactate dehydrogenase assay. It counts as cell-based. To be noted: for IC50: Plasmodium falciparum. The method, then:
The test samples (crude extracts, isolates, and chemical derivatives) were tested in triplicate against a chloroquine sensitive (CQS) strain of Plasmodium falciparum (D10). Continuous in vitro cultures of asexual erythrocyte stages of P. falciparum were maintained using modified method of Trager and Jensen. Quantitative assessment of anti-plasmodial activity in vitro was determined via the parasite lactate dehydrogenase assay using a modified method described by Makler. The test samples were prepared to a 20 mg/mL stock solution in 100% DMSO and sonicated to enhance solubility. Stock solutions were stored at −20 °C. Further dilutions were prepared on the day of the experiment. Chloroquine and artesunate were used as the reference drugs for experiments. A full dose-response was performed for all active compounds to determine the concentration inhibiting 50% of parasite growth (IC50-value). Test samples were tested at a starting concentration of 100 μg/mL, which was then serially diluted 2-fold in complete medium to give 10 preparations of variable concentrations; with the lowest concentration being 0.2 μg/mL. The same dilution technique was used for all samples. CQ was tested at a starting concentration of 1,000 ng/mL. The highest concentration of solvent to which the parasite-infected erythrocytes were exposed to had no measurable effect on the parasite viability (data not shown). The IC50-values were obtained using a non-linear dose-response curve fitting analysis via Graph Pad Prism v.4.0 software (Graph Pad Prism, Inc: San Diego, CA, USA, 1994–2003).

The test system of a further assay is Plasmodium berghei. Nature of the assay: In vivo antiplasmodial activity, four-day suppressive test in infected mice. Also on record: species or system Swiss mice. To be noted: P. berghei infected mice, oral for four consecutive days, smears on day five; chloroquine 5 mg/kg/day; dose not given (50-400 mg/kg/day groups). The method, then: This study was carried out after the approval from the Ethical Committee on Animal Use and Care of the University of Zululand (UZREC 171110-030 PGD 2013/26). Swiss mice (20-25 g each) of both sexes were obtained from biomedical research unit (BRU) in the University of […], Durban. They were kept in plastic cages, and given standard laboratory diet and water ad libitum and maintained under laboratory conditions of temperature and 12 h light and 12 h dark cycle. The animals were allowed to acclimatize to the laboratory at a controlled temperature of 22 °C for 15 days before being subjected to the experiments. The animals were divided into seven groups (eight in each group) consisting of control, chloroquine (5 mg/kg/day), and the extract treated group. The extract treated group was sub divided into five sub groups that received 50, 100, 200, 300 and 400 mg/kg/day body weight respectively. A single donor mouse infected with Plasmodium berghei parasites was bled into sterile heparinized culture medium and the blood was diluted with RPMI 1640 medium. The healthy experimental mice were infected intravenously via a tail vein with 0.2 mL of the diluted blood containing 1 × 10^7 parasitized (Plasmodium berghei) red blood cells on day one. The antimalarial activity tests were performed using the four-day suppressive tests described by Peters et al.. The extracts dissolved in 0.5% carboxymethyl cellulose (CMC) were administered orally using cannula (equivalent to 0.2 mL solution per mouse) for four consecutive days. […] The percent parasitemia suppression was determined by counting the number of parasitized erythrocytes out of 500 red blood cells on random fields under the microscope. The average percentage suppression of parasitemia was calculated using the following formula: % suppression = A - B/C (1) where A = % parasitemia in untreated controls, B = % parasitemia in treated groups, and C = % parasitemia in untreated controls. The data were analyzed using the F-test.

Where [2] appears, read: P. falciparum CQS D10 strain, in vitro, pLDH assay, triplicate, starting concentration 100 μg/mL, read-out: IC50 (anti-plasmodial activity, concentration inhibiting 50% of parasite growth).

`C[C@H]1[C@H](C)CC[C@]2(C(=O)O)CC[C@]3(C)C(=CC[C@@H]4[C@@]5(C)CCC(=O)C(C)(C)[C@@H]5CC[C@]43C)[C@H]12` [3-oxo-ursolic acid]: in assay [1] (setting [2]), the IC50 stood at 7.3 µg/mL (≈ 16.1 µM).
As for `CCN(CC)CCCC(C)Nc1ccnc2cc(Cl)ccc12` (centres unmarked) [Chloroquine, reference compound], the IC50 in assay [1] (D10, read-out: IC50 (anti-plasmodial activity), reference drugs) was 0.0141 µg/mL (≈ 0.0441 µM). In addition, in the assay on Plasmodium berghei, the “Average % suppression (of parasitemia)” value was 83.43%.
In the case of `CO[C@H]1CC[C@@]2(C)C(CC[C@@]3(C)C4=CC[C@@]5(C)CCC(C)(C)CC5[C@]4(C)CCC23)C1(C)C` (some centres unmarked) [Sawamilletin, sawamilletin], the IC50 in assay [1] (setting [2]) was above 100 µg/mL.
Regarding `CC(=O)O[C@H]1CC[C@]2(C)[C@H]3CC=C4[C@@H]5[C@@H](C)[C@H](C)CC[C@]5(C(=O)O)CC[C@@]4(C)[C@]3(C)CC[C@H]2C1(C)C` [Ursolic acid acetate, 3β-acetylursolic acid], the IC50 in assay [1] (setting [2]) was found to be 1.9 µg/mL. The “Increase in the in vitro anti-malarial activity relative to ursolic acid” value in assay [1] (acetate derivative versus ursolic acid, P. falciparum D10) is 72%. Also, in the assay with Plasmodium berghei, the Average % parasitemia stood at 0.07% and the “Average % suppression (of parasitemia)” value was 94.01%.
Consider `C[C@H]1[C@H](OC(=O)CCC(=O)O)O[C@@H]2O[C@@]3(C)CC[C@H]4[C@H](C)CC[C@@H]1[C@@]24OO3` [Artesunate, reference compound], for which the IC50 in assay [1] (P. falciparum CQS D10 strain, in vitro, pLDH assay, values marked * = ng/mL, read-out: IC50 (anti-plasmodial activity), reference drugs) was found to be 0.0051 µg/mL (≈ 0.0133 µM).
In the case of `C[C@H]1[C@H](C)CC[C@]2(C(=O)O)CC[C@]3(C)C(=CC[C@@H]4[C@@]5(C)CC[C@H](O)C(C)(C)[C@@H]5CC[C@]43C)[C@H]12` [Ursolic acid, ursolic acid], in assay [1] (setting [2]), the IC50 came out at 6.8 µg/mL (≈ 14.9 µM).
The same measure, in the same setting: the figure for `CC1(C)CC[C@]2(C)CC=C3[C@]4(C)CC[C@H]5C(C)(C)[C@@H](O)CC[C@]5(C)[C@H]4CC[C@@]3(C)[C@@H]2C1` [Taraxerol, taraxerol] is above 100 µg/mL.
